Results published in US4752614A, “Pharmaceutical compositions of tellerium and selenium compounds for the induction of in vivo and in vitro production of cytokines” (Bar-Ilan University, priority 1987, dated 1988).
Where “and” joins values, the source holds several entries; their conditions need not be identical. Equal values may be shown once.

Key:
[1] = system: IL-2; assay: IL-2 secretion by mouse spleen cells in vitro, CTLD proliferation (Example 17); assay type: cell-based, male Balb/c mice; settings: for activation at 1 µg/mL: Mus musculus, read-out: Spleen Cells, percent in parentheses (increase over control)
Method: The compounds listed below were tested in vitro at various concentrations that ranged from 10 μg/ml cells to 1×10^-6 μg/ml of cell mixtures. Cells were obtained from spleens of male Balb/c mice 6-8 weeks of age. Spleens were pushed through a stainless steel 60 mesh strainer to separate cells.

[2] = system: IL-2; assay: Oral administration in drinking water, IL-2 content of spleen cell supernatants (Example 13); assay type: in vivo, male Balb-C mice; settings: 4 days
Method: The water solution was prepared by dissolving the compounds in PBS at a concentration of 50 μg/ml PBS and diluting the resulting solution to the desired concentration. The compounds were administered over a 4 day period. The exact amount of liquid intake was recorded daily. […] The cells were incubated at a concentration of 10^7 cells/ml in enriched RPMI containing 2 μg/ml of con-A for 24 hours at 37° C. The supernatants were collected and tested for IL-2 content.

[3] = system: human mononuclear cells; assay: Proliferation of human mononuclear cells, 3H-methylthymidine (Examples 4 and 9); assay type: cell-based; settings: 1 to 10 ng/ml cells, 72 hours (Example 9)
Method: Cells were further incubated overnight and harvested with a cell harvester.

[4] = system: IL-2 receptors; assay: Induction of IL-2 receptors of human mononuclear cells, proliferation with recombinant IL-2 (Example 18); assay type: cell-based
Method: Human MNC were brought to a concentration of 10^6 cells/ml. RPMI+10% FCS. Aliquots of 0.2 ml. were placed in duplicate wells of microdishes and plates were incubated at 37° C. for 24 hrs. […] Plates were further incubated for 48 hrs. and labelled with 3H thymidine 24 hrs. before harvesting.
The proliferation was measured by ^3 HT uptake as described by Gillis et al, J. Immunol. […] The results are expressed in counts per minute.

[5] = system: human mononuclear cells; assay: Proliferation of human mononuclear cells (Example 19); assay type: cell-based
Method: Human mononuclear cells were obtained by layering heparinized blood over a Ficoll/Hypaque gradient. The mononuclear cells were resuspended in enriched RPMI, rinsed three times and brought to a concentrations of 5×10^5 cells/ml encriched RPMI. […] Aliquots of 0.2 ml of each sample were placed in wells of microplates (triplicates). Microplates were incubated for 72 hours at 37° C. after which they were labelled with H^3 methyl-thymidine 1 μCi/well for an additional 24 hours. Cells were then harvested with a cell harvester.

[6] = system: T-cell lymphocytes; assay: Lymphokine induction, proliferation and receptor activation in T-cell lymphocytes (statement)
Description: Thus the invention also contemplates the use alone of TeO2 and tellurium compounds that are active as lymphokine inducers.

[7] = system: receptor sites for IL-2; assay: Detection of IL-2 receptors with fluoresceinated antibody (Example 21); assay type: cell-based, human; settings: 1 μg/ml, 24 hours
Method: This example provides an assay to detect the presence of receptor sites for IL-2. […] The cells were washed twice with PDS and then incubated with a specific fluoresceinated antibody against IL-2 receptors as described in Uchiyama et al, J. Immunol.

[8] = 24 hours, 1 μg/ml of cell mixture
[9] = second part of table, 1 × 10^-1 μg/ml
[10] = second part of table, 1 × 10^-2 μg/ml
[11] = second part of table, 1 × 10^-3 μg/ml
[12] = second part of table, 1 × 10^-4 μg/ml
[13] = second part of table, 5 × 10^-1 μg/ml
[14] = second part of table, 5 × 10^-2 μg/ml

For COc1ccc([Te](Cl)(Cl)c2ccc(OC)cc2)cc1 [(pCH3 OPh)2 TeCl2, reference compound], the “Spleen Cells (IL-2 activity)” value [1, 8] was 2,148 cpm.
With Cl[Te]1(Cl)OCCO1 [Example 2] the IL-2 content ([2]; 1 μg/ml H2O) was 42500 cpm, the “Percent increase as compared to control” value ([2]; 1 μg/ml H2O) was “+30%” and the IL-2 content ([2]; 10 μg/ml H2O) was 36815 cpm. For the same molecule, the IL-2 content ([2]; 25 μg/ml H2O) was 44500 cpm, the “Percent increase as compared to control” value ([2]; 25 μg/ml H2O) was “+35%” and the “increase of proliferation of human mononuclear cells” value [3] was 10 fold. For the same molecule, the “proliferation (3HT uptake)” value ([4]; Test B, 1 μg/ml) was 9315 counts per minute, the “proliferation (3HT uptake)” value ([4]; Test B, 1 × 10^-2 μg/ml) was 6418 counts per minute and the “proliferation (3HT uptake)” value ([4]; Test B, 1 × 10^-3 μg/ml) was 5167 counts per minute. The “proliferation (3HT uptake)” value ([4]; Test B, 1 × 10^-4 μg/ml) was 5372 counts per minute, the “proliferation (3HT uptake)” value ([4]; Test B, 1 × 10^-5 μg/ml) was 6397 counts per minute and the “proliferation (3HT uptake)” value ([4]; Test B, 5 × 10^-1 μg/ml) was 8688 counts per minute. For the same molecule, the “proliferation (3HT uptake)” value ([4]; Test B, 5 × 10^-2 μg/ml) was 5538 counts per minute, the “proliferation (3HT uptake)” value ([4]; Test B, 7 × 10^-1 μg/ml) was 5250 counts per minute and the “Spleen Cells (IL-2 activity)” value [1, 8] was 18,000 cpm. For the same molecule, the activation at 1 µg/mL [1, 8] was 605%, the “proliferation of human mononuclear cells” value ([5]; Ex. 2 table, 1 × 10^-4 μg/ml) was 4321 and 2332 and the “proliferation of human mononuclear cells” value ([5]; Ex. 2 table, 5 × 10^-1 μg/ml) was 18415 and 23957. For the same molecule, the “proliferation of human mononuclear cells” value ([5]; Ex. 2 table, 5 × 10^-2 μg/ml) was 5953 and 5532.
For C1CO[Te]2(O1)OCCO2 [Example 14], the “proliferation (3HT uptake)” value ([4]; Test B, 1 μg/ml) was 2620 counts per minute, the “proliferation (3HT uptake)” value ([4]; Test B, 1 × 10^-2 μg/ml) was 3928 counts per minute and the “proliferation (3HT uptake)” value ([4]; Test B, 1 × 10^-3 μg/ml) was 3007 counts per minute. For the same molecule, the “proliferation (3HT uptake)” value ([4]; Test B, 1 × 10^-4 μg/ml) was 2327 counts per minute, the “proliferation (3HT uptake)” value ([4]; Test B, 1 × 10^-5 μg/ml) was 2242 counts per minute and the “proliferation (3HT uptake)” value ([4]; Test B, 5 × 10^-1 μg/ml) was 2402 counts per minute. For the same molecule, the “proliferation (3HT uptake)” value ([4]; Test B, 5 × 10^-2 μg/ml) was 3290 counts per minute, the “proliferation (3HT uptake)” value ([4]; Test B, 7 × 10^-1 μg/ml) was 2000 counts per minute and the “Spleen Cells (IL-2 activity)” value [1, 8] was 10,300 cpm. It also gave an activation at 1 µg/mL [1, 8] of 304%.
CC1CO[TeH](Cl)(Cl)(Cl)O1 (centres unmarked) [Example 16(a)] was tested, and the “proliferation (3HT uptake)” value ([4]; Test A, 1 μg/ml) was 21910 counts per minute, the “proliferation (3HT uptake)” value ([4]; Test A, 1 × 10^-2 μg/ml) was 9543 counts per minute and the “proliferation (3HT uptake)” value ([4]; Test A, 1 × 10^-3 μg/ml) was 6685 counts per minute. The “proliferation (3HT uptake)” value ([4]; Test A, 1 × 10^-4 μg/ml) was 6447 counts per minute, the “proliferation (3HT uptake)” value ([4]; Test A, 1 × 10^-5 μg/ml) was 8177 counts per minute and the “proliferation (3HT uptake)” value ([4]; Test A, 5 × 10^-1 μg/ml) was 145208 counts per minute. The “proliferation (3HT uptake)” value ([4]; Test A, 5 × 10^-2 μg/ml) was 8752 counts per minute, the “proliferation (3HT uptake)” value ([4]; Test A, 7 × 10^-1 μg/ml) was 130845 counts per minute and the “Spleen Cells (IL-2 activity)” value [1, 8] was 13,540 cpm. The activation at 1 µg/mL [1, 8] was 435%, the “proliferation of human mononuclear cells” value ([5]; second part of table, 1 μg/ml) was 4557 and the “proliferation of human mononuclear cells” value ([5]; second part of table, 5 μg/ml) was 4118. The “proliferation of human mononuclear cells” value [5, 9] was 12435, the “proliferation of human mononuclear cells” value [5, 10] was 6000 and the “proliferation of human mononuclear cells” value [5, 11] was 6300. For the same molecule, the “proliferation of human mononuclear cells” value [5, 12] was 4587, the “proliferation of human mononuclear cells” value [5, 13] was 18415 and the “proliferation of human mononuclear cells” value [5, 14] was 5953.
In the case of CC1O[TeH](Cl)(Cl)(Cl)OC1C (centres unmarked) [Example 16(b)], the “proliferation (3HT uptake)” value ([4]; Test A, 1 μg/ml) is reported as 1018 counts per minute, the “proliferation (3HT uptake)” value ([4]; Test A, 1 × 10^-2 μg/ml) is reported as 5883 counts per minute and the “proliferation (3HT uptake)” value ([4]; Test A, 1 × 10^-3 μg/ml) is reported as 1093 counts per minute. The “proliferation (3HT uptake)” value ([4]; Test A, 1 × 10^-4 μg/ml) was 1138 counts per minute, the “proliferation (3HT uptake)” value ([4]; Test A, 1 × 10^-5 μg/ml) was 2146 counts per minute and the “proliferation (3HT uptake)” value ([4]; Test A, 5 × 10^-1 μg/ml) was 1195 counts per minute. The “proliferation (3HT uptake)” value ([4]; Test A, 5 × 10^-2 μg/ml) was 1602 counts per minute, the “proliferation (3HT uptake)” value ([4]; Test A, 7 × 10^-1 μg/ml) was 2102 counts per minute and the “Spleen Cells (IL-2 activity)” value [1, 8] was 10,650 cpm. For the same molecule, the activation at 1 µg/mL [1, 8] was 318%.
In the case of Cl[TeH]1(Cl)(Cl)OCCCO1 [Example 16(c)], the “Spleen Cells (IL-2 activity)” value [1, 8] is reported as 15,720 cpm and the activation at 1 µg/mL [1, 8] is reported as 516%.
With Cl[TeH]1(Cl)(Cl)OCCCCO1 [Example 16(d)] the “Spleen Cells (IL-2 activity)” value [1, 8] was 18,075 cpm and the activation at 1 µg/mL [1, 8] was 608%.
With CC(=O)O[Te](OC(C)=O)(c1ccccc1)c1ccccc1 [Ph2 Te (OCOCH3)2, reference compound] the “Spleen Cells (IL-2 activity)” value [1, 8] was 3,500 cpm and the “activity at level tested (footnote *)” value [1] was “no significant activity”.
O=C(O[Te](OC(=O)c1ccccc1)(c1ccccc1)c1ccccc1)c1ccccc1 [Ph2 Te (OCOPh)2, reference compound] was tested, and the “Spleen Cells (IL-2 activity)” value [1, 8] was 4,300 cpm and the “activity at level tested (footnote *)” value [1] was “no significant activity”.
With Cl[Te](Cl)(c1ccccc1)c1ccccc1 [Ph2 Te Cl2, reference compound] the “Spleen Cells (IL-2 activity)” value [1, 8] was 2,300 cpm and the “activity at level tested (footnote *)” value [1] was “no significant activity”.
Cl[Te](Cl)(Cl)c1ccccc1 [Ph Te Cl3, reference compound] was tested, and the “Spleen Cells (IL-2 activity)” value [1, 8] was 18,000 cpm and the activation at 1 µg/mL [1, 8] was 605%.
With O=[Te]=O [TeO2, Tellurium dioxide, reference compound] the “activation of the receptor site in responder T-cell lymphocytes” value [6] was “will not cause proliferation of IL-2 producer cells or activate the receptor site”, the “proliferation of IL-2 producer cells” value [6] was “will not cause proliferation of IL-2 producer cells” and the “lymphokine production in producer T-cell lymphocytes” value ([6]; in vitro and in vivo) was “will induce lymphokine production”. For the same molecule, the “cells positive for IL-2 receptors” value [7] was 5%, the “proliferation (3HT uptake)” value ([4]; Test A, 1 μg/ml) was 1563 counts per minute and the “proliferation (3HT uptake)” value ([4]; Test A, 1 × 10^-2 μg/ml) was 3108 counts per minute. For the same molecule, the “proliferation (3HT uptake)” value ([4]; Test A, 1 × 10^-3 μg/ml) was 2867 counts per minute, the “proliferation (3HT uptake)” value ([4]; Test A, 1 × 10^-4 μg/ml) was 5540 counts per minute and the “proliferation (3HT uptake)” value ([4]; Test A, 1 × 10^-5 μg/ml) was 3442 counts per minute. The “proliferation (3HT uptake)” value ([4]; Test A, 5 × 10^-1 μg/ml) was 4667 counts per minute, the “proliferation (3HT uptake)” value ([4]; Test A, 5 × 10^-2 μg/ml) was 2515 counts per minute and the “proliferation (3HT uptake)” value ([4]; Test A, 7 × 10^-1 μg/ml) was 2475 counts per minute. The “proliferation (3HT uptake)” value ([4]; Test B, 1 μg/ml) was 3275 counts per minute, the “proliferation (3HT uptake)” value ([4]; Test B, 1 × 10^-2 μg/ml) was 3077 counts per minute and the “proliferation (3HT uptake)” value ([4]; Test B, 1 × 10^-3 μg/ml) was 3800 counts per minute. For the same molecule, the “proliferation (3HT uptake)” value ([4]; Test B, 1 × 10^-4 μg/ml) was 2925 counts per minute, the “proliferation (3HT uptake)” value ([4]; Test B, 1 × 10^-5 μg/ml) was 3645 counts per minute and the “proliferation (3HT uptake)” value ([4]; Test B, 5 × 10^-1 μg/ml) was 5405 counts per minute. For the same molecule, the “proliferation (3HT uptake)” value ([4]; Test B, 5 × 10^-2 μg/ml) was 4280 counts per minute, the “proliferation (3HT uptake)” value ([4]; Test B, 7 × 10^-1 μg/ml) was 4302 counts per minute and the “Spleen Cells (IL-2 activity)” value [1, 8] was 17,055 cpm. The “Spleen Cells, percent in parentheses (increase over control)” value [1, 8] was “+508%”, the effect on proliferation ([5]; any concentration that was tested) was “No significant effect” and the “proliferation of human mononuclear cells” value ([5]; second part of table, 1 μg/ml) was 2842. For the same molecule, the “proliferation of human mononuclear cells” value ([5]; second part of table, 5 μg/ml) was 3028, the “proliferation of human mononuclear cells” value [5, 9] was 4825 and the “proliferation of human mononuclear cells” value [5, 10] was 4730. The “proliferation of human mononuclear cells” value [5, 11] was 6168, the “proliferation of human mononuclear cells” value [5, 12] was 5331 and the “proliferation of human mononuclear cells” value [5, 13] was 4773. The “proliferation of human mononuclear cells” value [5, 14] was 5802.
